{
  "source": "patent US10441568B2",
  "about": "“Nitroxide radicals for the treatment of diseases of the respiratory tract” (priority 2015, dated 2019)",
  "key": {"TGF-β1": {"system": "TGF-β1", "experiment": "TGF-β1 level in bleomycin pulmonary fibrosis model", "type": "in vivo, mice", "settings": "3-CP 150 mg/kg daily intranasal, 14 days, FIG. 19", "method": "Bronchoalveolar lavage (BAL) fluid (also referred to herein as “BALf”) and bronchial submucosal inflammation are characteristic features of asthma. Mice were euthanized with an overdose of 50 mg/kg pentobarbital and ice-cold phosphate buffer saline (PBS) (0.6 ml) was instilled into the lungs. BAL fluid was obtained by three aspirations via tracheal cannulation, centrifuged, and the supernatant collected and stored at −70° C. Cell pellets were re-suspended in PBS and 100 μl aliquots placed onto slides and centrifuged (200 g, 4° C., 10 minutes) in a cytospin machine. Induction of oxidative stress was evaluated using a 2′,7′-dichlorofluorescein fluorescence assay, and total IgE, IgG2a, panel of cytokines, transforming growth factors, collagen, protein nitration and lipid peroxidation were measured using commercial kits according to the manufacturer's recommendations. A Sircol™ collagen assay kit was obtained from Biocolor Life Sciences Assays, a protein nitration assay kit was obtained from Abcam, and other assay kits were obtained from PeproTech Asia. […]\n(§1) The effect of 3-CP on bleomycin-induced inflammation was evaluated by determining lung resistance, total inflammatory cell count, and TGF-β1 levels, according to procedures described hereinabove."}, "[1]": {"system": "ovalbumin-induced asthma model", "experiment": "Lung histopathology, H&E pathology scoring, OVA asthma model", "type": "in vivo, mice", "settings": "FIG. 9", "method": "Following aspiration of BAL as described hereinabove, a thoracotomy was performed, and the right main bronchus was tied. The left lung was fixed by means of intrabronchial infusion with 1 ml of 4% formaldehyde, and then immersed in fixative (10% (v/v) neutral buffered formalin) for 24 hours at 4° C. Transverse sections of the left lung were embedded in paraffin, and […] sections were stained with hematoxylin and eosin (H&E) by Hadassah Hospital Pathology Service (Jerusalem, Israel). In addition, periodic acid-Schiff (PAS) staining was performed on lung tissue, and the degree of mucin production was measured from PAS staining.\nIn order to evaluate the effect of 3-CP on lung pathology, animals in an ovalbumin-induced asthma model were treated with 3-CP, and killed by abdominal aortic transaction and exsanguination, according to procedures described hereinabove. Lung tissue was examined by hematoxylin and eosin (H&E) staining, the degree of mucin production was determined from periodic-acid-Schiff (PAS) staining."}, "[2]": {"system": "bleomycin-induced pulmonary fibrosis", "experiment": "Lung resistance in bleomycin pulmonary fibrosis model", "type": "in vivo, mice", "settings": "3-CP 150 mg/kg daily intranasal, 14 days, 64 mg/ml methacholine, FIG. 17", "method": "One day after the final challenge, respiratory activity and airway hyper-responsiveness (AHR) of experimental animals were evaluated. Whole body plethysmographs for enhanced pause (Penh) measurements are often used for assessment of AHR. However, critics have questioned the validity of Penh measurements, which supposedly measure airway obstruction of live non-sedated mice, stating that it is likely to measure the distress of the animal rather than actual obstruction. […] In brief, mice were sedated with an intraperitoneal (IP) injection of xylazine hydrochloride and anaesthetized with IP injection of pentobarbital. Subsequently, the animals were tracheostomized using an 18 gauge cannula, ventilated with a FlexiVent™ apparatus (SCIREQ), and muscle paralysis was induced with pancuronium bromide. The mice were ventilated in a quasi-sinusoidal fashion with the following settings: a tidal volume of 10 ml/kg, maximum inflation pressure of […] (30 cm H2O), a positive end expiratory pressure (PEEP) of 3 millibar and a frequency of 150 per minute. […] Airway hyper-responsiveness (AHR) was determined by aerosolizing increasing concentrations of methacholine. […]\nas §1"}, "IL-4": {"system": "IL-4", "experiment": "IL-4 level in OVA asthma model", "type": "in vivo, BALB/c mice", "method": "All experimental procedures were carried out in accordance with the NIH Guidelines for the Care and Use of Laboratory Animals. Specific pathogen-free (SPF) male BALB/c mice (6-7 weeks of age, 18-22 grams), routinely screened serologically for relevant respiratory pathogens, were maintained in an animal housing facility for 1 week before use and given access to food and water ad libitum. Animals were randomly assigned to the indicated experimental groups, and sensitized with two intraperitoneal (IP) injections (20 μg ovalbumin (OVA) emulsified in 2 mg aluminum hydroxide (an adjuvant) in 200 μl phosphate buffer saline (PBS), pH 7.4), on days 1 and 10.\nAfter another week, the animals were challenged by exposure to ovalbumin (OVA) aerosol (1%, w/v, in PBS) for 30 minutes each day on days 17, 18 and 19, in order to elicit an inflammatory reaction in the lungs characterized by airway hyper-responsiveness (AHR), an influx of inflammatory cells (particularly eosinophils), and increased pulmonary levels of various cytokines and transforming growth factors, protein nitration and lipid peroxidation.\nBronchoalveolar lavage (BAL) fluid (also referred to herein as “BALf”) and bronchial submucosal inflammation are characteristic features of asthma. Mice were euthanized with an overdose of 50 mg/kg pentobarbital and ice-cold phosphate buffer saline (PBS) (0.6 ml) was instilled into the lungs. BAL fluid was obtained by three aspirations via tracheal cannulation, centrifuged, and the supernatant collected and stored at −70° C. Cell pellets were re-suspended in PBS and 100 μl aliquots placed onto slides and centrifuged (200 g, 4° C., 10 minutes) in a cytospin machine. Induction of oxidative stress was evaluated using a 2′,7′-dichlorofluorescein fluorescence assay, and total IgE, IgG2a, panel of cytokines, transforming growth factors, collagen, protein nitration and lipid peroxidation were measured using commercial kits according to the manufacturer's recommendations. A Sircol™ collagen assay kit was obtained from Biocolor Life Sciences Assays, a protein nitration assay kit was obtained from Abcam, and other assay kits were obtained from PeproTech Asia.\nThe efficacy of oral administration of 3-CP (1 weight percent in chow) during the sensitization period and/or challenge period was then compared to IP injection (˜300 mg/kg, 0.5 hour before the OVA challenge) or intranasal instillation (˜150 mg/kg, 0.5 hour before the OVA and 6 hours later) of 3-CP, as well as to dexamethasone treatment (1 mg/kg, 3 daily IP injections, 0.5 hour prior to the challenge with OVA aerosol).\nIn order to assess the effect of 3-CP on inflammatory signaling pathways, […] to procedures described hereinabove, upon oral, intranasal or IP administration of 3-CP."}},
  "data": [
    {"smiles": "CC1(C)CC(C(N)=O)C(C)(C)N1[O]", "note": "(stereo not shown) [3-CP, 3-Carbamoyl-2,2,5,5-tetramethyl-pyrrolidin-1-oxyl]", "values": [
      {"measurement": "effect on bleomycin-induced increase in TGF-β1 expression in lungs", "setting": "TGF-β1", "result": "significantly reduced"},
      {"measurement": "effect on degree of lung pathology, H & E pathology scoring", "setting": "[1]; 3-CP via all tested modes of delivery", "result": "reduced the degree of lung pathology"},
      {"measurement": "H & E lung pathology, 3-CP compared with dexamethasone", "setting": "[1]", "result": "more effective in this respect than treatment with dexamethasone"},
      {"measurement": "effect on bleomycin-induced increase in lung resistance", "setting": "[2]", "result": "completely reversed"},
      {"measurement": "effect on OVA-induced increase in the level of IL-4", "setting": "IL-4; FIG. 7A and Table 1", "result": "inhibited"},
      {"measurement": "IL-4 level", "setting": "IL-4; OVA IP-C: 3-CP intraperitoneal during challenge", "result": 1.70, "unit": "ng/mg"},
      {"measurement": "IL-4 level", "setting": "IL-4; OVA oral-C: 3-CP oral during challenge", "result": 2.03, "unit": "ng/mg"},
      {"measurement": "IL-4 level", "setting": "IL-4; OVA oral-S&C: 3-CP oral during sensitization and challenge", "result": 1.65, "unit": "ng/mg"},
      {"measurement": "IL-4 level", "setting": "IL-4; OVA oral-S: 3-CP oral during sensitization", "result": 2.44, "unit": "ng/mg"},
      {"measurement": "modulating IL-4 level, oral compared with IP 3-CP", "setting": "IL-4; oral administration vs IP injection", "result": "consistently more effective than IP injection of 3-CP"}
    ]}
  ]
}
